Assay results as given in ChEMBL document CHEMBL6109159, “Discovery of a Potent and Selective Protein Arginine Methyltransferase 5 (PRMT5) PROTAC Degrader” (J Med Chem, 2025).
Activity calls are given as the source filed them. No cut-off for these calls is given here.

Experiments:
[1] = molecular target: T1, von Hippel-Lindau disease tumor suppressor/Protein arginine N-methyltransferase 5 (Homo sapiens, UniProt O14744+P40337); test: PROTAC activity at PRMT5/VHL in human MDA-MB-468 cells assessed as degradation measured at 0.5 to 5 uM after 24 hrs by Western blot analysis; type: cell-based; conditions: dose 0.5-5 µM
[2] = molecular target: T2, von Hippel-Lindau disease tumor suppressor/Methylosome protein WDR77 (Homo sapiens, UniProt Q9BQA1+P40337); test: PROTAC activity at MEP50/VHL in human MDA-MB-468 cells assessed as degradation measured at 0.5 to 5 uM after 24 hrs by Western blot analysis; type: cell-based; conditions: dose 0.5-5 µM
[3] = molecular target: T1, von Hippel-Lindau disease tumor suppressor/Protein arginine N-methyltransferase 5; test: PROTAC activity at PRMT5/VHL in human MCF-10A cells assessed as degradation at 0.5 to 5 uM after 3 days by Western blot analysis; type: cell-based; conditions: dose 0.5-5 µM, time 3.0 day
MCF-10A [4] = test: PROTAC activity at MEP50/VHL in human MCF-10A cells assessed as degradation at 0.5 to 5 uM after 3 days by Western blot analysis; type: cell-based; conditions: dose 0.5-5 µM, time 3.0 day
[5] = molecular target: T2, von Hippel-Lindau disease tumor suppressor/Methylosome protein WDR77; test: PROTAC activity at MEP50/VHL in human PNT2 cells assessed as degradation at 0.5 to 5 uM after 3 days by Western blot analysis; type: cell-based; conditions: dose 0.5-5 µM, time 3.0 day
MCF-10A [6] = test: Cytotoxicity against human MCF10A cells assessed as cell viability up to 15 uM measured after 5 days by CCK-8 assay; type: toxicity, cell-based; conditions: 120 h, time 5 day
[7] = PROTAC activity at PRMT5/VHL in human PNT2 cells assessed as degradation at 0.5 to 5 uM after 3 days by Western blot analysis; conditions: dose 0.5-5 µM, time 3.0 day
[8] = molecular target: T1, von Hippel-Lindau disease tumor suppressor/Protein arginine N-methyltransferase 5; test: PROTAC activity at PRMT5/VHL in human MDA-MB-468 cells assessed as maximal degradation at 5 uM measured after 72 hrs by Western blot analysis relative to control; type: cell-based
[9] = molecular target: T2, von Hippel-Lindau disease tumor suppressor/Methylosome protein WDR77; test: PROTAC activity at MEP50/VHL in human MDA-MB-468 cells assessed as maximal degradation at 5 uM measured after 72 hrs by Western blot analysis relative to control; type: cell-based
[10] = molecular target: T1, von Hippel-Lindau disease tumor suppressor/Protein arginine N-methyltransferase 5; test: PROTAC activity at PRMT5/VHL in human MDA-MB-468 cells assessed as degradation at 2 uM measured up to 12 hrs by Western blot analysis; type: cell-based
[11] = molecular target: T2, von Hippel-Lindau disease tumor suppressor/Methylosome protein WDR77; test: PROTAC activity at MEP50/VHL in human MDA-MB-468 cells assessed as degradation at 2 uM measured up to 48 hrs by Western blot analysis; type: cell-based
[12] = molecular target: Protein arginine N-methyltransferase 5 (Homo sapiens, UniProt O14744); test: Inhibition of PRMT5 (unknown origin) using S-adenosylmethionine (SAM) using as substrate preincubated for 30 mins followed by substrate addition measured after 60 mins by microplate reader
MDA-MB-468 [13] = test: Cytotoxicity against human MDA-MB-468 cells assessed as cell viability measured after 7 days by CCK-8 assay; type: functional; conditions: MDA-MB-468, 168 h, time 7 day
[14] = molecular target: T1, von Hippel-Lindau disease tumor suppressor/Protein arginine N-methyltransferase 5; test: PROTAC activity at PRMT5/VHL in human MCF7 cells assessed as degradation at 0.5 uM after 3 days by Western blot analysis; type: cell-based; conditions: time 3.0 day
[15] = molecular target: T1, von Hippel-Lindau disease tumor suppressor/Protein arginine N-methyltransferase 5; test: PROTAC activity at PRMT5/VHL in human MCF7 cells assessed as degradation at 5 uM after 3 days by Western blot analysis; type: cell-based; conditions: time 3.0 day
[16] = molecular target: T2, von Hippel-Lindau disease tumor suppressor/Methylosome protein WDR77; test: PROTAC activity at MEP50/VHL in human MCF7 cells assessed as degradation at 0.5 uM after 3 days by Western blot analysis; type: cell-based; conditions: time 3.0 day
[17] = molecular target: T2, von Hippel-Lindau disease tumor suppressor/Methylosome protein WDR77; test: PROTAC activity at MEP50/VHL in human MCF7 cells assessed as degradation at 5 uM after 3 days by Western blot analysis; type: cell-based; conditions: time 3.0 day
[18] = molecular target: T1, von Hippel-Lindau disease tumor suppressor/Protein arginine N-methyltransferase 5; test: PROTAC activity at PRMT5/VHL in human MDA-MB-468 cells assessed as degradation measured at 0.5 uM after 72 hrs by Western blot analysis; type: cell-based
[19] = molecular target: T1, von Hippel-Lindau disease tumor suppressor/Protein arginine N-methyltransferase 5; test: PROTAC activity at PRMT5/VHL in human MDA-MB-468 cells assessed as degradation measured at 5 uM after 72 hrs by Western blot analysis; type: cell-based
[20] = molecular target: T2, von Hippel-Lindau disease tumor suppressor/Methylosome protein WDR77; test: PROTAC activity at MEP50/VHL in human MDA-MB-468 cells assessed as degradation measured at 0.5 uM after 72 hrs by Western blot analysis; type: cell-based
[21] = molecular target: T2, von Hippel-Lindau disease tumor suppressor/Methylosome protein WDR77; test: PROTAC activity at MEP50/VHL in human MDA-MB-468 cells assessed as degradation measured at 5 uM after 72 hrs by Western blot analysis; type: cell-based
[22] = molecular target: T1, von Hippel-Lindau disease tumor suppressor/Protein arginine N-methyltransferase 5; test: PROTAC activity at PRMT5/VHL in human PC-3 cells assessed as degradation at 0.5 to 5 uM after 7 hrs by Western blot analysis; type: cell-based; conditions: dose 0.5-5 µM
[23] = molecular target: T2, von Hippel-Lindau disease tumor suppressor/Methylosome protein WDR77; test: PROTAC activity at MEP50/VHL in human PC-3 cells assessed as degradation at 0.5 to 5 uM after 7 hrs by Western blot analysis; type: cell-based; conditions: dose 0.5-5 µM
MDA-MB-468 [24] = test: Inhibition of sDMA (symmetric dimethylarginine) level in human MDA-MB-468 cells at 0.5 uM measured after 72 hrs by Western blot analysis; type: functional, cell-based
MDA-MB-468 [25] = test: Inhibition of sDMA (symmetric dimethylarginine) level in human MDA-MB-468 cells at 5 uM measured after 72 hrs by Western blot analysis; type: functional, cell-based
MDA-MB-468 [26] = test: Inhibition of sDMA (symmetric dimethylarginine) level in human MDA-MB-468 cells at 2 uM measured after 7 days by Western blot analysis; type: functional, cell-based; conditions: time 7.0 day

T2 sequence (P40337 whole entry, looked up): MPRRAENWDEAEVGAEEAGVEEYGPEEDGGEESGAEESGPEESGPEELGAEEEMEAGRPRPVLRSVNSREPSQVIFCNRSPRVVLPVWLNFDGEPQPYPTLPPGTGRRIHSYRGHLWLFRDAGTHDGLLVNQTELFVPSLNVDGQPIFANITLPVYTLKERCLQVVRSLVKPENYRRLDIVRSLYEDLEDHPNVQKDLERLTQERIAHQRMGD
T2 sequence (Q9BQA1 whole entry, looked up): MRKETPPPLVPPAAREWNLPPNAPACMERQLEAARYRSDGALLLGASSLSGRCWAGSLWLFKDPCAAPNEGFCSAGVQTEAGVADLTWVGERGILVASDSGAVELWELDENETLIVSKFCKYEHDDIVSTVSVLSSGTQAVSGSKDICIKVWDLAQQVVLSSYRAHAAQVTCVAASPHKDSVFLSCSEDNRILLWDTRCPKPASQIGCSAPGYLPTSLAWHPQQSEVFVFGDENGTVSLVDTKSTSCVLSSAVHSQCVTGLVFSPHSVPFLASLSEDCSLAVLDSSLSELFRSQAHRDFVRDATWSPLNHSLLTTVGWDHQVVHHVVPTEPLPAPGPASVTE
T1 sequence (O14744 whole entry, looked up): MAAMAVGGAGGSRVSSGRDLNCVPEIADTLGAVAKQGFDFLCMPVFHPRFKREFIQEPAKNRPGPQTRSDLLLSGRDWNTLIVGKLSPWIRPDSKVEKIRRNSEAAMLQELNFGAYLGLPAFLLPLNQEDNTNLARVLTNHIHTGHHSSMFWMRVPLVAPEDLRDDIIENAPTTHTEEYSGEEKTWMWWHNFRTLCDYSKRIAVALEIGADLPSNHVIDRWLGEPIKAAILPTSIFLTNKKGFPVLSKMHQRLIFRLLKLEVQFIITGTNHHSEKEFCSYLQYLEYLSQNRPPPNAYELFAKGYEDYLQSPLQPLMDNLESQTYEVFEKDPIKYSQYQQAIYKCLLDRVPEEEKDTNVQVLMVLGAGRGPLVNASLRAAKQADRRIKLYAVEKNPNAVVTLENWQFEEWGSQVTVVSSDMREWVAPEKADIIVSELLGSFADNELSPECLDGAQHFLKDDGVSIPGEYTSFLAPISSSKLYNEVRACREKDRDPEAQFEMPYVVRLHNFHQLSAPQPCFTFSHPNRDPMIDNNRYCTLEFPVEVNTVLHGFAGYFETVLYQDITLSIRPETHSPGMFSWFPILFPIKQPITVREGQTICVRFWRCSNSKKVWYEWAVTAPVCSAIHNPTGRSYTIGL
T1 sequence (P40337 whole entry, looked up): as the sequence (P40337 whole entry, looked up) above
Sequence of Protein arginine N-methyltransferase 5 (O14744 whole entry): as the sequence (O14744 whole entry, looked up) above

Row | SMILES | GI50 (MDA-MB-468 [13]) [µM] | Activity [18] | Activity [19] | Activity [20] | Activity [21] | Activity [22] | Activity [23] | other results
1 | O=C1CCC(N2C(=O)c3ccc(NCCCCCCCCCC(=O)N4CCC(Nc5cc(C(=O)NC[C@H](O)CN6CCc7ccccc7C6)ncn5)CC4)cc3C2=O)C(=O)N1 (some centres undefined) |  |  |  |  |  |  |  | Activity [1]: inactive; Activity [2]: inactive; Activity [3]: 50%; Activity (MCF-10A [4]): 50%; Activity [5]: 50%; Activity (MCF-10A [6]): Toxic; Activity [7]: 50%
2 | Cc1ncsc1-c1ccc([C@H](C)NC(=O)[C@@H]2C[C@@H](O)CN2C(=O)[C@@H](NC(=O)COCCOCCOCCOCCOCC(=O)N2CC(Nc3cc(C(=O)NC[C@H](O)CN4CCc5ccccc5C4)ncn3)C2)C(C)(C)C)cc1 | > 20 |  |  |  |  |  |  | Activity [8]: 50%; Activity [9]: 50%; Activity [10]: Active; Activity [11]: inactive; IC50 [12]: 690 nM; Activity [14]: Active; Activity [15]: Active; Activity [16]: Active; Activity [17]: Active
3 | Cc1ncsc1-c1ccc([C@H](CC(=O)NCCOCCOCCOCCOCCOCCC(=O)N2CCC(Nc3cc(C(=O)NC[C@H](O)CN4CCCCC4)ncn3)CC2)NC(=O)[C@@H]2C[C@@H](O)CN2C(=O)[C@@H](NC(=O)C2(F)CC2)C(C)(C)C)cc1 | > 20 | inactive | inactive | inactive | inactive | inactive | inactive | 
4 | Cc1ncsc1-c1ccc([C@H](CC(=O)NCCOCCOCCOCCOCCOCCC(=O)N2CCC(Nc3cc(C(=O)NC[C@H](O)CN4CCc5ccccc5C4)ncn3)CC2)NC(=O)[C@@H]2C[C@H](O)CN2C(=O)[C@@H](NC(=O)C2(F)CC2)C(C)(C)C)cc1 | 9.9 | inactive | inactive | inactive | inactive | inactive | inactive | 
5 | O=C(NC[C@H](O)CN1CCc2ccccc2C1)c1cc(NC2COC2)ncn1 | 0.23 | inactive | inactive | inactive | inactive |  |  | inhibition (MDA-MB-468 [24]): Active; inhibition (MDA-MB-468 [25]): Active; inhibition (MDA-MB-468 [26]): Active; Compound Inhibited Greater Extent Than Ms4322
